Laboratory results: PMC12196347, “Evaluating Triazole-Substituted Pyrrolopyrimidines as CSF1R Inhibitors” (Molecules, 2025)
Values after ≈ are worked out from the molar mass of the structure shown.

How the values were obtained:
CSF1R = target: T1, CSF1R (Homo sapiens, UniProt P07333); assay: CSF1R enzymatic inhibition, TR-FRET-based LANCE Ultra assay; format: biochemical; details: single 8-point titrations, ATP concentration 25 µM, read-out: Enz. IC50
T1 sequence (P07333 539-972 limits assumed): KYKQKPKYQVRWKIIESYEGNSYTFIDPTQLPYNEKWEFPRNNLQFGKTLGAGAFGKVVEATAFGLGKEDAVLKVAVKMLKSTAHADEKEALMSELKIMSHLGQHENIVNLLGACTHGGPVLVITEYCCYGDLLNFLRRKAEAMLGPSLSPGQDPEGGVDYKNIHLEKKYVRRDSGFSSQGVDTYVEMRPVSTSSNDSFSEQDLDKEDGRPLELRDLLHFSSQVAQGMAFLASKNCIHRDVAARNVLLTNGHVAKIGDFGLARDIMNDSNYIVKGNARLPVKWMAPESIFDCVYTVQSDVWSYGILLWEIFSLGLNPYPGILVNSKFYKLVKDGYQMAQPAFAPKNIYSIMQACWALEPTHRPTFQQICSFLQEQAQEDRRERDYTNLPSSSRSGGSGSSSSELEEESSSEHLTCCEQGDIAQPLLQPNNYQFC

CSF1R Ba/F3 cells = assay: Cell viability assay, Ba/F3 cells engineered to be dependent on CSF1R; format: cell-based; details: duplicate measurements; for IC50: Mus musculus, BaF3, Ba/F3 cells dependent on CSF1R; for CSF1R Ba/F3 IC50: Ba/F3 cells dependent on CSF1R
[1] = Kinetic solubility, spectrophotometric; format: physicochemical; details: aqueous buffer, kinetic from dmso stock, spectrophotometrically at pH 7.4 in HEPES buffer
[2] = system: IL-3 dependent Ba/F3 cell line (CSF1R independent); assay: Control assay for cellular toxicity, Ba/F3 cells dependent on IL-3; format: cell-based; details: Mus musculus, BaF3; Ba/F3 cells dependent on IL-3, control for cellular toxicity

IC50 (CSF1R) [µM] | IC50 (CSF1R Ba/F3 cells) [µM] | solubility kinetic [1] [µM] | CSF1R Ba/F3 IC50 (CSF1R Ba/F3 cells) | Structure (SMILES) | IC50 [2] [µM]
< 0.001 | > 10 | 20 (≈ 8.07 µg/mL) | – | Cc1cccc(CN(C)c2ncnc3[nH]c(-c4cn(C5CCOCC5)nn4)cc23)c1 [Compound 29a, N-Methyl-N-(3-methylbenzyl)-6-(1-(tetrahydro-2H-pyran-4-yl)-1H-1,2,3-triazol-4-yl)-7H-pyrrolo[2,3-d]pyrimidin-4-amine] | > 10
< 0.001 | 1 ± 0.1 | 5.5 (≈ 2.08 µg/mL) | – | Cc1cccc(CN(C)c2ncnc3[nH]c(-c4cn(CCCO)nn4)cc23)c1 [Compound 28a, 3-(4-(4-(Methyl(3-methylbenzyl)amino)-7H-pyrrolo[2,3-d]pyrimidin-6-yl)-1H-1,2,3-triazol-1-yl)propan-1-ol] | > 10
0.002 | > 10 | 0.2 (≈ 0.0855 µg/mL) | – | Cc1cccc(CN(C)c2ncnc3[nH]c(-c4cn(Cc5ccc(F)cc5)nn4)cc23)c1 [Compound 24a, 6-(1-(4-Fluorobenzyl)-1H-1,2,3-triazol-4-yl)-N-methyl-N-(3-methylbenzyl)-7H-pyrrolo[2,3-d]pyrimidin-4-amine] | > 10
0.0063 | > 10 | 1.1 (≈ 0.466 µg/mL) | – | Cc1ccc(Cn2cc(-c3cc4c(N(C)Cc5cccc(C)c5)ncnc4[nH]3)nn2)cc1 [Compound 25a, N-Methyl-N-(3-methylbenzyl)-6-(1-(4-methylbenzyl)-1H-1,2,3-triazol-4-yl)-7H-pyrrolo[2,3-d]pyrimidin-4-amine] | > 10
0.002 | > 10 | 0.3 (≈ 0.123 µg/mL) | – | Cc1cccc(CN(C)c2ncnc3[nH]c(-c4cn(Cc5ccccc5)nn4)cc23)c1 [Compound 23a, 6-(1-Benzyl-1H-1,2,3-triazol-4-yl)-N-methyl-N-(3-methylbenzyl)-7H-pyrrolo[2,3-d]pyrimidin-4-amine] | > 10
0.0011 | > 10 | 495 (≈ 184 µg/mL) | inactive | CN(CC1CCOCC1)c1ncnc2[nH]c(-c3cn(CCCO)nn3)cc12 [Compound 28b, 3-(4-(4-(Methyl((tetrahydro-2H-pyran-4-yl)methyl)amino)-7H-pyrrolo[2,3-d]pyrimidin-6-yl)-1H-1,2,3-triazol-1-yl)propan-1-ol] | > 10
0.0021 | > 10 | 11 (≈ 4.48 µg/mL) | No measurable cell activity | CN(CC1CCOCC1)c1ncnc2[nH]c(-c3cn(-c4ccc(F)cc4)nn3)cc12 [Compound 19b, 6-(1-(4-Fluorophenyl)-1H-1,2,3-triazol-4-yl)-N-methyl-N-((tetrahydro-2H-pyran-4-yl)methyl)-7H-pyrrolo[2,3-d]pyrimidin-4-amine] | > 10
0.0282 | > 10 | 3 (≈ 1.23 µg/mL) | – | Cc1ccc(-n2cc(-c3cc4c(N(C)Cc5cccc(C)c5)ncnc4[nH]3)nn2)cc1 [Compound 20a, N-Methyl-N-(3-methylbenzyl)-6-(1-(p-tolyl)-1H-1,2,3-triazol-4-yl)-7H-pyrrolo[2,3-d]pyrimidin-4-amine] | > 10
0.0023 | 1.2 ± 0.2 | 11 (≈ 4.36 µg/mL) | – | Cc1cccc(CN(C)c2ncnc3[nH]c(-c4cn(-c5cccnc5)nn4)cc23)c1 [Compound 22a, N-Methyl-N-(3-methylbenzyl)-6-(1-(pyridin-3-yl)-1H-1,2,3-triazol-4-yl)-7H-pyrrolo[2,3-d]pyrimidin-4-amine] | > 10
< 0.001 | 3.7 ± 1.9 | 4.9 (≈ 1.98 µg/mL) | – | CN(CC1CCOCC1)c1ncnc2[nH]c(-c3cn(Cc4ccccc4)nn3)cc12 [Compound 23b, 6-(1-Benzyl-1H-1,2,3-triazol-4-yl)-N-methyl-N-((tetrahydro-2H-pyran-4-yl)methyl)-7H-pyrrolo[2,3-d]pyrimidin-4-amine] | > 10
0.0021 | 1.6 ± 0.3 | 37 (≈ 14.4 µg/mL) | – | CN(CC1CCOCC1)c1ncnc2[nH]c(-c3cn(-c4cccnc4)nn3)cc12 [Compound 22b, N-Methyl-6-(1-(pyridin-3-yl)-1H-1,2,3-triazol-4-yl)-N-((tetrahydro-2H-pyran-4-yl)methyl)-7H-pyrrolo[2,3-d]pyrimidin-4-amine] | > 10
0.0058 | 2.8 ± 0.3 | 4.6 (≈ 2.02 µg/mL) | – | COc1ccc(Cn2cc(-c3cc4c(N(C)Cc5cccc(C)c5)ncnc4[nH]3)nn2)cc1 [Compound 26a, 6-(1-(4-Methoxybenzyl)-1H-1,2,3-triazol-4-yl)-N-methyl-N-(3-methylbenzyl)-7H-pyrrolo[2,3-d]pyrimidin-4-amine] | > 10
< 0.001 | 1.1 ± 0.1 | 51 (≈ 21.2 µg/mL) | – | Cc1cccc(CN(C)c2ncnc3[nH]c(-c4cn(C5CCN(C)CC5)nn4)cc23)c1 [Compound 30a, N-Methyl-N-(3-methylbenzyl)-6-(1-(1-methylpiperidin-4-yl)-1H-1,2,3-triazol-4-yl)-7H-pyrrolo[2,3-d]pyrimidin-4-amine] | > 10
0.0077 | > 10 | 0.4 (≈ 0.165 µg/mL) | – | Cc1cccc(CN(C)c2ncnc3[nH]c(-c4cn(-c5ccc(F)cc5)nn4)cc23)c1 [Compound 19a, 6-(1-(4-Fluorophenyl)-1H-1,2,3-triazol-4-yl)-N-methyl-N-(3-methylbenzyl)-7H-pyrrolo[2,3-d]pyrimidin-4-amine] | > 10
< 0.001 | > 10 | 76 (≈ 30.2 µg/mL) | No measurable cell activity | CN(CC1CCOCC1)c1ncnc2[nH]c(-c3cn(C4CCOCC4)nn3)cc12 [Compound 29b, N-Methyl-6-(1-(tetrahydro-2H-pyran-4-yl)-1H-1,2,3-triazol-4-yl)-N-((tetrahydro-2H-pyran-4-yl)methyl)-7H-pyrrolo[2,3-d]pyrimidin-4-amine] | > 10
– | > 10 | 14 (≈ 5.45 µg/mL) | – | CN(CC1CCOCC1)c1ncnc2[nH]c(-c3cn(-c4ccccc4)nn3)cc12 [Compound 18b, N-Methyl-6-(1-phenyl-1H-1,2,3-triazol-4-yl)-N-((tetrahydro-2H-pyran-4-yl)methyl)-7H-pyrrolo[2,3-d]pyrimidin-4-amine] | > 10
< 0.001 | 2.7 ± 1 | 2.5 (≈ 1.04 µg/mL) | – | Cc1cccc(CN(C)c2ncnc3[nH]c(-c4cn(CC5CCOCC5)nn4)cc23)c1 [Compound 31a, N-Methyl-N-(3-methylbenzyl)-6-(1-((tetrahydro-2H-pyran-4-yl)methyl)-1H-1,2,3-triazol-4-yl)-7H-pyrrolo[2,3-d]pyrimidin-4-amine] | > 10
0.0015 | 4.6 ± 2.7 | 1.7 (≈ 0.717 µg/mL) | – | CN(CC1CCOCC1)c1ncnc2[nH]c(-c3cn(Cc4ccc(F)cc4)nn3)cc12 [Compound 24b, 6-(1-(4-Fluorobenzyl)-1H-1,2,3-triazol-4-yl)-N-methyl-N-((tetrahydro-2H-pyran-4-yl)methyl)-7H-pyrrolo[2,3-d]pyrimidin-4-amine] | > 10
0.0091 | 3.2 ± 0.9 | 0.7 (≈ 0.282 µg/mL) | – | Cc1ccc(-n2cc(-c3cc4c(N(C)CC5CCOCC5)ncnc4[nH]3)nn2)cc1 [Compound 20b, N-Methyl-N-((tetrahydro-2H-pyran-4-yl)methyl)-6-(1-(p-tolyl)-1H-1,2,3-triazol-4-yl)-7H-pyrrolo[2,3-d]pyrimidin-4-amine] | > 10
